Measured values as given in the supplement of paper PMC10307832.

Assays:
Assay in all cases: relative viability (nuclei count vs DMSO), 5 days (fraction); higher = more cells survive
AZ628 + Navitoclax = compound: CC1=C(C=C(C=C1)NC(=O)C2=CC(=CC=C2)C(C)(C)C#N)NC3=CC4=C(C=C3)N=CN(C4=O)C [AZ628] + CC1(C)CCC(c2ccc(Cl)cc2)=C(CN2CCN(c3ccc(C(=O)NS(=O)(=O)c4ccc(N[C@H](CCN5CCOCC5)CSc5ccccc5)c(S(=O)(=O)C(F)(F)F)c4)cc3)CC2)C1 [Navitoclax] (partner 0.5 µM)
Procedure, shortened: (§1)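 Values are medians from duplicate plates. Each reflects relative viability, defined as the nuclei count of treated wells over that of vehicle wells. Lung cancer cell lines in 1536-well plates were pin-tool dosed one day after seeding with one drug alone or with a fixed anchor-drug dose plus five library-drug doses (not always all listed) in √10 steps, then fixed, stained and imaged at 4× after 5 days.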

[1] = compound: C[As](C)SC[C@H](NC(=O)CC[C@H](N)C(=O)O)C(=O)NCC(=O)O [Darinaparsin] + O=C(CCCCCCC(=O)Nc1ccccc1)NO [Vorinostat] (partner 1 µM)
Procedure, shortened: as §1

[2] = compound: C[As](C)SC[C@H](NC(=O)CC[C@H](N)C(=O)O)C(=O)NCC(=O)O [Darinaparsin] + Nc1ncn([C@H]2C[C@H](O)[C@@H](CO)O2)c(=O)n1 [Decitabine] (partner 2 µM)
Procedure, shortened: as §1

Darinaparsin + AZD7762 = compound: C[As](C)SC[C@H](NC(=O)CC[C@H](N)C(=O)O)C(=O)NCC(=O)O [Darinaparsin] + NC(=O)Nc1cc(-c2cccc(F)c2)sc1C(=O)N[C@H]1CCCNC1 [AZD7762] (partner 0.2 µM)
Procedure, shortened: as §1

| Cell Line | relative viability (AZ628 + Navitoclax; first compound 0.08 µM) | relative viability (AZ628 + Navitoclax; first compound 0.253 µM) | relative viability (AZ628 + Navitoclax; first compound 0.8 µM) | relative viability (AZ628 + Navitoclax; first compound 2.53 µM) | relative viability (AZ628 + Navitoclax; first compound 8 µM) | relative viability ([1]; first compound 0.08 µM) | relative viability ([1]; first compound 0.8 µM) | relative viability ([1]; first compound 2.53 µM) | relative viability ([1]; first compound 8 µM) | relative viability ([2]; first compound 0.08 µM) | relative viability ([2]; first compound 0.8 µM) | relative viability ([2]; first compound 2.53 µM) | relative viability ([2]; first compound 8 µM) | relative viability (Darinaparsin + AZD7762; first compound 0.08 µM) | relative viability (Darinaparsin + AZD7762; first compound 2.53 µM) | relative viability (Darinaparsin + AZD7762; first compound 8 µM) | relative viability (Darinaparsin + AZD7762; first compound 0.8 µM) |
| --- | --- | --- | --- | --- | --- | --- | --- | --- | --- | --- | --- | --- | --- | --- | --- | --- | --- |
| Calu-6 | 0.926 | 0.494 | 0.317 | 0.595 | 0.152 | – | – | – | – | – | – | – | – | – | – | – | – |
| COR-L23 | 1.02 | 1.12 | 1.2 | 1.07 | 0.492 | 0.453 | 0.523 | 0.425 | 0.433 | 0.496 | 0.394 | 0.348 | 0.496 | – | – | – | – |
| SK-MES-1 | 1.22 | 1.25 | 1.39 | 1.23 | 1.21 | 1.11 | 1.07 | 0.924 | 1.43 | 0.358 | 0.357 | 0.34 | 0.388 | – | – | – | – |
| SW 900 | – | – | – | – | – | 0.457 | – | 0.635 | 0.596 | 0.44 | – | 0.404 | 0.462 | 0.644 | 0.549 | 0.6 | – |
| NCI-H1299 | 1.1 | 1.15 | 1.17 | 1.19 | 0.975 | – | – | – | – | – | – | – | – | – | – | – | – |
| NCI-H522 | – | – | – | – | – | 0.85 | 0.909 | 0.798 | 0.905 | 0.626 | 0.627 | 0.711 | 0.705 | 0.764 | 0.809 | 0.883 | 0.895 |
| COR-L 105 | 0.81 | 0.967 | 0.761 | 0.655 | 0.652 | 0.908 | 0.656 | 0.822 | 0.932 | 0.642 | 0.711 | 0.621 | 0.666 | – | – | – | – |
